Reference: paper PMC3585965 (Drugs in R&D, 2012)

What was measured:
[1] = Study 2: pharmacokinetic drug-drug interaction GLPG0259 / methotrexate; type: in vivo, human; details: methotrexate 7.5 mg
[2] = cited from earlier work

Cmax point estimate, with vs without GLPG0259 ([1]; day 14 (GLPG0259 50 mg) vs day -7): 89.63%
AUC∞ point estimate, with vs without GLPG0259 ([1]; day 14 vs day -7): 118.22%
t1/2,λz point estimate, with vs without GLPG0259 ([1]; day 14 vs day -7): 110.64%
Structure (SMILES): CN(Cc1cnc2nc(N)nc(N)c2n1)c1ccc(C(=O)N[C@@H](CCC(=O)O)C(=O)O)cc1 [methotrexate]
t1/2,λz, range of boundary values reported in the literature [2]: 6 to 69 h
